Like-named read-outs stand apart in the source and are kept apart here. Numbered stars: 1 amine (or outer) side, 2 acyl side, 3 side chain; on linkers, the order of the positions; unused ones are H or OH. Bridge positions count the residues as written; N and C are the ends. Square brackets hold non-standard residues; d marks the D form. Peptide text beside a SMILES is read from it. I, II: the chains in the order shown. Actinocin(9to1) = Cc1c2oc3c(C)ccc(C(=O)[*:1])c3nc-2c(C(=O)[*:2])c(N)c1=O; NMeV = CN[C@H](C(=O)O)C(C)C; Sar = CNCC(=O)O
Assays:
[1] = tested on: SKOV-3 (ovarian cancer cell line); test: cells; assay type: cell-based, human; conditions: for IC50: SRB assay, 72 h exposure, read-out: Anticancer activity IC50 (nM) ± SD, SKOV-3
[2] = tested on: PC-3 (human prostate cancer cell line); test: cells; assay type: cell-based; conditions: for IC50: SRB assay, 72 h exposure, read-out: Anticancer activity IC50 (nM) ± SD, PC-3
[3] = tested on: SKBR-3 (human breast cancer cell line); test: cells; assay type: cell-based; conditions: SRB assay, 72 h exposure, read-out: Anticancer activity IC50 (nM) ± SD, SKBR-3
[4] = tested on: U-87MG cells (glioblastoma cell line); test: cells; assay type: cell-based, human; conditions: SRB assay, 72 h exposure, read-out: Anticancer activity IC50 (nM) ± SD, U-87
[5] = in vitro; conditions: human
[6] = Toxicity IC50 (nM) ± SD, HDF, healthy cell line HDF, SRB assay, 72 h exposure

Row | SMILES | IC50 ([1]; Homo sapiens, SK-OV-3) [nM] | IC50 ([2]; Homo sapiens) [nM] | IC50 ([3]; Homo sapiens, SK-BR-3, 72 h) [nM] | IC50 ([4]; Homo sapiens, U-87 MG) [nM] | IC50 [5, 6] [nM] | other results
1 | COc1cc2c(c(OC)c1OC)-c1ccc(=O)c(OCc3cn(C4CC(n5cc(C)c(=O)[nH]c5=O)OC4CO)nn3)cc1C(NC(C)=O)CC2 (centres unmarked) [Compound 5e] | 3.74 ± 0.03 | 3.51 ± 0.09 | 3.71 ± 0.05 | 3.05 ± 0.01 | 6.22 ± 0.32 | –
2 | C/C=C/COc1ccc2c(cc1=O)[C@@H](NC(C)=O)CCc1cc(OC)c(OC)c(OC)c1-2 [Compound 4e] | 1.92 ± 0.11 | 1.98 ± 0.05 | 1.97 ± 0.04 | 1.93 ± 0.02 | 2.66 ± 0.03 | –
3 | COc1cc2c(c(OC)c1OC)-c1ccc(OCc3cn(C4CC(n5cc(C)c(=O)[nH]c5=O)OC4CO)nn3)c(=O)cc1C(NC(C)=O)CC2 (centres unmarked) [Compound 6e] | 3.33 ± 0.11 | 3.5 ± 0.49 | 3.02 ± 0.31 | 3.84 ± 0.02 | 5.18 ± 0.18 | –
4 | COc1cc2c(c(OC)c1OC)-c1ccc(OC/C=C/c3ccccc3)c(=O)cc1[C@@H](NC(C)=O)CC2 [Compound 4c] | 3.05 ± 0.03 | 3.19 ± 0.01 | 3.46 ± 0.07 | 3.82 ± 0.22 | 4.94 ± 0.15 | –
5 | COc1cc2c(c(OC)c1OC)-c1ccc(=O)c(OCc3ccc(I)cc3)cc1[C@@H](NC(C)=O)CC2 [Compound 3b] | 2.13 ± 0.4 | 2.94 ± 0.08 | 2.55 ± 0.12 | 2.47 ± 0.91 | 3.94 ± 0.27 | –
6 | COc1cc2c(c(OC)c1OC)-c1ccc(=O)c(OCc3cn(CCCNC4=C5C[C@@H](C)C[C@H](OC)[C@H](O)[C@@H](C)/C=C(\C)[C@H](OC(N)=O)[C@@H](OC)/C=C\C=C(/C)C(=O)NC(=CC4=O)C5=O)nn3)cc1[C@@H](NC(C)=O)CC2 [Compound 5f] | 8.05 ± 0.58 | 8.38 ± 0.09 | 8.91 ± 0.17 | 8.25 ± 0.11 | 10.4 ± 0.39 | –
7 | C=CCCOc1cc2c(ccc1=O)-c1c(cc(OC)c(OC)c1OC)CC[C@@H]2NC(C)=O [Compound 3h] | 1.99 ± 0.07 | 1.53 ± 0.21 | 1.04 ± 0.33 | 1.06 ± 0.03 | 1.84 ± 0.11 | –
8 | COc1cc2c(c(OC)c1OC)-c1ccc(=O)c(OCc3ccc(/C=C/c4ccc(CNC5=C6C[C@@H](C)C[C@H](OC)[C@H](O)[C@@H](C)/C=C(\C)[C@H](OC(N)=O)[C@@H](OC)/C=C\C=C(/C)C(=O)NC(=CC5=O)C6=O)cc4)cc3)cc1[C@@H](NC(C)=O)CC2 [Compound 7d] | 7.04 ± 0.15 | 7.49 ± 0.32 | 7.22 ± 0.19 | 7.06 ± 0.44 | 9.04 ± 0.29 | –
9 | C=Cc1ccc(COc2cc3c(ccc2=O)-c2c(cc(OC)c(OC)c2OC)CC[C@@H]3NC(C)=O)cc1 [Compound 3j] | 4.55 ± 0.07 | 4.59 ± 0.03 | 4.19 ± 0.62 | 4.55 ± 0.06 | 5.38 ± 0.42 | –
10 | Cc1c2oc3c(C)ccc(C(=O)N[C@@H]4C(=O)N[C@H](C(C)C)C(=O)N5CCC[C@H]5C(=O)N(C)CC(=O)N(C)[C@@H](C(C)C)C(=O)O[C@@H]4C)c3nc-2c(C(=O)N[C@@H]2C(=O)N[C@H](C(C)C)C(=O)N3CCC[C@H]3C(=O)N(C)CC(=O)N(C)[C@@H](C(C)C)C(=O)O[C@@H]2C)c(N)c1=O [ActD, actinomycin D, reference compound] (I: T[dV]P[Sar][NMeV] / II: T[dV]P[Sar][NMeV]; ester I:1-I:C, II:1-II:C; linker I:N-II:N via Actinocin(9to1)) | – | – | – | 1610 ± 90 | – | IC50 ([3]; Homo sapiens, SK-BR-3): 1140 ± 60 nM
11 | COc1cc2c(c(OC)c1OC)-c1ccc(=O)c(OCCCN=[N+]=[N-])cc1[C@@H](NC(C)=O)CC2 [Compound 3i] | 1.05 ± 0.02 | 1.43 ± 0.02 | 1.32 ± 0.05 | 1.88 ± 0.05 | 2.85 ± 0.13 | –
12 | COc1cc2c(c(OC)c1OC)-c1ccc(OCc3cn([C@@H]4O[C@H](COC(C)=O)[C@@H](OC(C)=O)[C@H](OC(C)=O)[C@H]4NC(C)=O)nn3)c(=O)cc1[C@@H](NC(C)=O)CC2 [Compound 6d] | 5.93 ± 0.12 | 5.04 ± 0.02 | 5.21 ± 0.39 | 5.83 ± 0.15 | 7.29 ± 0.41 | –
13 | COc1cc2c(c(OC)c1OC)-c1ccc(=O)c(OCc3ccc(/C=C/c4ccc5ccccc5c4)cc3)cc1[C@@H](NC(C)=O)CC2 [Compound 7a] | 8.54 ± 0.71 | 8.61 ± 0.38 | 8.02 ± 0.08 | 8.63 ± 0.14 | 8.19 ± 0.92 | –
14 | COc1cc2c(c(OC)c1OC)-c1ccc(OCc3ccccc3)c(=O)cc1[C@@H](NC(C)=O)CC2 [Compound 4a] | 1.63 ± 0.03 | 2.26 ± 0.01 | 2.01 ± 0.02 | 2.08 ± 0.01 | 4.12 ± 0.06 | –
15 | COc1cc2c(c(OC)c1OC)-c1ccc(=O)c(OC/C=C/c3ccccc3)cc1[C@@H](NC(C)=O)CC2 [Compound 3c] | 3.74 ± 0.18 | 3.11 ± 0.91 | 3.09 ± 0.02 | 3.38 ± 0.05 | 5.24 ± 0.26 | –
16 | COc1cc2c(c(OC)c1OC)-c1ccc(OCc3cn(CCCNC4=C5C[C@@H](C)C[C@H](OC)[C@H](O)[C@@H](C)/C=C(\C)[C@H](OC(N)=O)[C@@H](OC)/C=C\C=C(/C)C(=O)NC(=CC4=O)C5=O)nn3)c(=O)cc1[C@@H](NC(C)=O)CC2 [Compound 6f] | 15.3 ± 0.31 | 17.84 ± 0.16 | 17.4 ± 0.64 | 17.3 ± 0.35 | 18 ± 0.24 | –

Row | SMILES | IC50 ([1]; Homo sapiens, SK-OV-3) [nM] | IC50 ([2]; Homo sapiens) [nM] | IC50 ([3]; Homo sapiens, SK-BR-3, 72 h) [nM] | IC50 ([4]; Homo sapiens, U-87 MG) [nM] | IC50 [5, 6] [nM] | other results
17 | C=CCOc1cc2c(ccc1=O)-c1c(cc(OC)c(OC)c1OC)CC[C@@H]2NC(C)=O [Compound 3d] | 1.68 ± 0.09 | 1.05 ± 0.01 | 1.09 ± 0.01 | 1.63 ± 0.04 | 2.83 ± 0.05 | –
18 | COc1cc2c(c(OC)c1OC)-c1ccc(OCc3ccc(I)cc3)c(=O)cc1[C@@H](NC(C)=O)CC2 [Compound 4b] | 2.83 ± 0.26 | 2.41 ± 0.66 | 2.77 ± 0.19 | 2.85 ± 0.03 | 4.12 ± 0.01 | –
19 | COc1cc2c(c(OC)c1OC)-c1ccc(=O)c(OCc3cn(Cc4ccccc4)nn3)cc1[C@@H](NC(C)=O)CC2 [Compound 5a] | 3.28 ± 0.06 | 3.21 ± 0.15 | 3.07 ± 0.11 | 3.74 ± 0.19 | 5.28 ± 0.22 | –
20 | CO[C@@]12[C@H](COC(N)=O)C3=C(C(=O)C(C)=C(N)C3=O)N1C[C@@H]1N[C@@H]12 [MitC, mitomycin C, reference compound] | – | – | – | 650 ± 40 | – | IC50 ([3]; Homo sapiens, SK-BR-3): 670 ± 10 nM
21 | CCOC(=O)COc1ccc2c(cc1=O)[C@@H](NC(C)=O)CCc1cc(OC)c(OC)c(OC)c1-2 [Compound 4g] | 1.06 ± 0.22 | 1.15 ± 0.03 | 1.28 ± 0.17 | 1.27 ± 0.01 | 2.05 ± 0.02 | –
22 | COc1cc2c(c(OC)c1OC)-c1ccc(OCc3cn(Cc4ccc([N+](=O)[O-])cc4)nn3)c(=O)cc1[C@@H](NC(C)=O)CC2 [Compound 6c] | 2.42 ± 0.11 | 2.05 ± 0.03 | 2.88 ± 0.06 | 2.81 ± 0.18 | 4.08 ± 0.26 | –
23 | COc1cc2c(c(OC)c1OC)-c1ccc(OCc3ccc(/C=C/c4ccc5ccccc5c4)cc3)c(=O)cc1[C@@H](NC(C)=O)CC2 [Compound 8a] | 6.49 ± 0.25 | 6.03 ± 0.26 | 6.3 ± 0.09 | 6.44 ± 0.07 | 8.72 ± 0.48 | –
24 | Nc1ccn([C@@H]2O[C@H](CO)[C@@H](O)[C@@H]2O)c(=O)n1 [C, cytarabine, reference compound] | 990 ± 110 | 810 ± 10 | 870 ± 10 | 850 ± 31 | – | IC50 at 72 h ([5]; Human Dermal Fibroblasts (HDF) cells, Toxicity IC50 (nM) ± SD, HDF, healthy cell line HDF, SRB assay, 72 h exposure): 5940 ± 70 nM
25 | C#CCOc1cc2c(ccc1=O)-c1c(cc(OC)c(OC)c1OC)CC[C@@H]2NC(C)=O [Compound 3f] | 1.05 ± 0.07 | 1.05 ± 0.03 | 1.37 ± 0.02 | 1.14 ± 0.01 | 2.83 ± 0.44 | Selectivity index (SI), SKOV-3 ([1]; SI = IC50 HDF/IC50 SKOV-3): ~2.7; Selectivity index (SI), PC-3 ([2]; SI = IC50 HDF/IC50 PC-3): ~2.7
26 | COc1cc2c(c(OC)c1OC)-c1ccc(=O)c(OCc3cn([C@@H]4O[C@H](COC(C)=O)[C@@H](OC(C)=O)[C@H](OC(C)=O)[C@H]4NC(C)=O)nn3)cc1[C@@H](NC(C)=O)CC2 [Compound 5d] | 6.03 ± 0.19 | 6.39 ± 0.08 | 6.29 ± 0.25 | 6.11 ± 0.26 | 7.99 ± 0.04 | –
27 | C#CCOc1ccc2c(cc1=O)[C@@H](NC(C)=O)CCc1cc(OC)c(OC)c(OC)c1-2 [Compound 4f] | 1.52 ± 0.02 | 1.46 ± 0.13 | 1.48 ± 0.09 | 1.06 ± 0.04 | 1.85 ± 0.03 | –
28 | COc1cc2c(c(OC)c1OC)-c1ccc(OCc3cn(Cc4ccc(C#N)cc4)nn3)c(=O)cc1[C@@H](NC(C)=O)CC2 [Compound 6b] | 3.97 ± 0.12 | 3.15 ± 0.04 | 3.06 ± 0.03 | 3.74 ± 0.06 | 5.83 ± 0.31 | –
29 | COc1cc2c(c(OC)c1OC)-c1ccc(OCc3ccc(/C=C/c4ccc(CNC5=C6C[C@@H](C)C[C@H](OC)[C@H](O)[C@@H](C)/C=C(\C)[C@H](OC(N)=O)[C@@H](OC)/C=C\C=C(/C)C(=O)NC(=CC5=O)C6=O)cc4)cc3)c(=O)cc1[C@@H](NC(C)=O)CC2 [Compound 8d] | 10.52 ± 0.05 | 11 ± 0.44 | 11.4 ± 0.15 | 10.8 ± 0.74 | 17.9 ± 1.04 | –
30 | COc1cc2c(c(OC)c1OC)-c1ccc(=O)c(O)cc1[C@@H](NC(C)=O)CC2 [Compound 2, colchiceine, reference compound] | – | – | – | – | – | IC50 [1]: 1.88 ± 0.02 nM; IC50 [2]: 1.37 ± 0.02 nM; IC50 [3]: 1.04 ± 0.07 nM; IC50 [4]: 1.26 ± 0.04 nM
31 | COc1cc2c(c(OC)c1OC)-c1ccc(OC)c(=O)cc1[C@@H](NC(C)=O)CC2 [Compound 1, colchicine, reference compound] | – | – | – | – | – | IC50 [5]: 2.37 ± 0.15 nM
